The test system of this assay is BDF1 mice, Adenocarcinoma 755 s.c., tumor weight T/C. In words: NCI In Vivo Anticancer Drug Screen. Data for tumor model Adenocarcinoma 755 (subcutaneous) in B6D2F1 (BDF1) mice. The following applies: endpoint: mean tumor weight, higher = larger tumour. In short, it runs like this:
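Transplantable tumor implanted; mice dosed with compound or vehicle; survival or tumor size recorded; ratio of treated to vehicle control reported.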

Where [1] appears, read: dose: 10.0 mg/kg/injection, schedule: Q01DX011 (ip), vehicle: carboxymethylcellulose (CMC).
[2] abbreviates: dose: 16.0 mg/kg/injection, schedule: Q01DX011 (ip), vehicle: carboxymethylcellulose (CMC).
Setting [3] is: dose: 10.0 mg/kg/injection, schedule: Q01DX011 (ip), vehicle: saline.

SMILES strings stand for the structures. “And” between values parts separate entries of the source, which are not always exact repeats. Identical values can stand only once.

Take `Nc1nc(=S)c2ncn(C3OC(COC(=O)c4ccc(Cl)cc4)C(OC(=O)c4ccc(Cl)cc4)C3OC(=O)c3ccc(Cl)cc3)c2[nH]1` (centres undefined): the T/C runs as follows: (dose: 0.88 mg/kg/injection, schedule: Q01DX011 (ip), vehicle: carboxymethylcellulose (CMC)) 94 % of control; (dose: 1.75 mg/kg/injection, schedule: Q01DX011 (ip), vehicle: carboxymethylcellulose (CMC)) 65 % of control; (dose: 3.5 mg/kg/injection, schedule: Q01DX011 (ip), vehicle: carboxymethylcellulose (CMC)) 102 % of control; (dose: 6.0 mg/kg/injection, schedule: Q01DX011 (ip), vehicle: carboxymethylcellulose (CMC)) 72 % of control; under setting [1], 6 % of control; (dose: 12.0 mg/kg/injection, schedule: Q01DX011 (ip), vehicle: carboxymethylcellulose (CMC)) 23 % of control. Also, the T/C is 1 % of control under setting [2]; 2 % of control and 3 % of control (dose: 50.0 mg/kg/injection, schedule: Q01DX011 (ip), vehicle: carboxymethylcellulose (CMC)).
Turning to `CC(C)N(C(C)C)C(C)CCNc1c2ccccc2nc2cc(Cl)ccc12` (centres undefined), the T/C by setting is: (dose: 3.0 mg/kg/injection, schedule: Q01DX011 (ip), vehicle: methylcellulose (MC)) 64 % of control; (dose: 6.0 mg/kg/injection, schedule: Q01DX011 (ip), vehicle: methylcellulose (MC)) 79 % of control; (dose: 12.0 mg/kg/injection, schedule: Q01DX011 (ip), vehicle: methylcellulose (MC)) 72 % of control.
Turning to `Cc1cn(C2OC(CO)C(O)C2O)c(=O)[nH]c1=O` (centres undefined), the T/C runs as follows: (dose: 62.0 mg/kg/injection, schedule: Q01DX011 (ip), vehicle: saline) 86 % of control; (dose: 125.0 mg/kg/injection, schedule: Q01DX011 (ip), vehicle: saline) 78 % of control; (dose: 500.0 mg/kg/injection, schedule: Q01DX011 (ip), vehicle: saline) 121 % of control.
As to `CC(Cc1ccccc1)NC(=O)CCl` (centres undefined), the T/C is 68 % of control (dose: 37.0 mg/kg/injection, schedule: Q01DX011 (im), vehicle: other); 71 % of control (dose: 37.0 mg/kg/injection, schedule: Q01DX011 (oral), vehicle: other); 118 % of control (dose: 37.0 mg/kg/injection, schedule: Q01DX011 (sc), vehicle: other); 68 % of control (dose: 50.0 mg/kg/injection, schedule: Q01DX011 (im), vehicle: other); 106 % of control (dose: 50.0 mg/kg/injection, schedule: Q01DX011 (oral), vehicle: other); 73 % of control (dose: 50.0 mg/kg/injection, schedule: Q01DX011 (sc), vehicle: other). Moreover, the T/C is, setting by setting: (dose: 75.0 mg/kg/injection, schedule: Q01DX011 (im), vehicle: other) 48 % of control; (dose: 75.0 mg/kg/injection, schedule: Q01DX011 (oral), vehicle: other) 87 % of control; (dose: 75.0 mg/kg/injection, schedule: Q01DX011 (sc), vehicle: other) 63 % of control; (dose: 112.0 mg/kg/injection, schedule: Q01DX011 (oral), vehicle: other) 82 % of control.
Turning to `CN(C)c1nc(N)nc(Nc2ccc(Br)cc2)c1N=O`, the T/C is 40 % of control (dose: 12.5 mg/kg/injection, schedule: Q01DX011 (ip), vehicle: carboxymethylcellulose (CMC)) and 51 % of control (dose: 25.0 mg/kg/injection, schedule: Q01DX011 (ip), vehicle: carboxymethylcellulose (CMC)).
`Nc1nc(=S)cc(Nc2ccccc2Cl)[nH]1`: the T/C is, setting by setting: (dose: 31.0 mg/kg/injection, schedule: Q01DX011 (ip), vehicle: methylcellulose (MC)) 101 % of control; (dose: 62.0 mg/kg/injection, schedule: Q01DX011 (ip), vehicle: methylcellulose (MC)) 156 % of control; (dose: 125.0 mg/kg/injection, schedule: Q01DX011 (ip), vehicle: methylcellulose (MC)) 93 % of control; (dose: 250.0 mg/kg/injection, schedule: Q01DX011 (ip), vehicle: methylcellulose (MC)) 122 % of control.
With `CSc1nc(N)nc2c1ncn2CCCl`, the T/C reads like this: under setting [3], 65 % of control; (dose: 20.0 mg/kg/injection, schedule: Q01DX011 (ip), vehicle: saline) 70 % of control; (dose: 40.0 mg/kg/injection, schedule: Q01DX011 (ip), vehicle: saline) 73 % of control; (dose: 80.0 mg/kg/injection, schedule: Q01DX011 (ip), vehicle: saline) 74 % of control.
With `O=C(O)c1ccc(-c2ccccc2)cc1`, the T/C (dose: 200.0 mg/kg/injection, schedule: Q01DX011 (ip), vehicle: carboxymethylcellulose (CMC)) was 80 % of control.
For `CC1CCC(n2cnc3c(Cl)ncnc32)O1` (centres undefined), the T/C reads like this: (dose: 3.7 mg/kg/injection, schedule: Q01DX011 (ip), vehicle: carboxymethylcellulose (CMC)) 58 % of control; (dose: 7.5 mg/kg/injection, schedule: Q01DX011 (ip), vehicle: carboxymethylcellulose (CMC)) 35 % of control; (dose: 15.0 mg/kg/injection, schedule: Q01DX011 (ip), vehicle: carboxymethylcellulose (CMC)) 63 % of control; (dose: 30.0 mg/kg/injection, schedule: Q01DX011 (ip), vehicle: carboxymethylcellulose (CMC)) 15 % of control and 23 % of control; (dose: 60.0 mg/kg/injection, schedule: Q01DX011 (ip), vehicle: carboxymethylcellulose (CMC)) 5 % of control.
Consider `Nc1ccc2cc3ccccc3cc2c1`, for which the T/C under setting [3] was 80 % of control; the T/C (dose: 10.5 mg/kg/injection, schedule: Q01DX011 (ip), vehicle: carboxymethylcellulose (CMC)) is 62 % of control; the T/C (dose: 21.0 mg/kg/injection, schedule: Q01DX011 (ip), vehicle: carboxymethylcellulose (CMC)) was 40 % of control; the T/C (dose: 21.0 mg/kg/injection, schedule: Q01DX011 (ip), vehicle: saline) is 41 % of control; the T/C (dose: 42.0 mg/kg/injection, schedule: Q01DX011 (ip), vehicle: saline) was 37 % of control; the T/C (dose: 84.0 mg/kg/injection, schedule: Q01DX011 (ip), vehicle: saline) is 29 % of control.
For `C[N+](C)(C)C(C(=O)c1ccccc1)c1ccccc1` (centres undefined), the T/C under setting [1] was 124 % of control.
As to `NC(=O)CF`, the T/C (dose: 2.5 mg/kg/injection, schedule: Q01DX011 (ip), vehicle: other) is 72 % of control.
As to `C[C@]12C=CC(=O)C=C1CC[C@@H]1[C@@H]2[C@@H](O)C[C@@]2(C)[C@H]1CC[C@]2(O)C(=O)COC(=O)CCC1CCCC1`, the T/C runs as follows: (dose: 3.1 mg/kg/injection, schedule: Q01DX011 (sc), vehicle: steriod suspending solution) 64 % of control; (dose: 6.25 mg/kg/injection, schedule: Q01DX011 (sc), vehicle: steriod suspending solution) 43 % of control; (dose: 6.25 mg/kg/injection, schedule: Q01DX011 (sc), vehicle: water) 47 % of control; (dose: 12.5 mg/kg/injection, schedule: Q01DX011 (sc), vehicle: steriod suspending solution) 34 % of control; (dose: 12.5 mg/kg/injection, schedule: Q01DX011 (sc), vehicle: water) 32 % of control; (dose: 25.0 mg/kg/injection, schedule: Q01DX011 (sc), vehicle: steriod suspending solution) 22 % of control. Besides, the T/C was 12 % of control (dose: 25.0 mg/kg/injection, schedule: Q01DX011 (sc), vehicle: water) and 13 % of control (dose: 50.0 mg/kg/injection, schedule: Q01DX011 (sc), vehicle: steriod suspending solution).
Take `O=C1C=Cc2ccc(O)cc2C1=O`: the T/C by setting is: (dose: 2.0 mg/kg/injection, schedule: Q01DX011 (ip), vehicle: saline) 103 % of control; (dose: 8.0 mg/kg/injection, schedule: Q01DX011 (ip), vehicle: saline) 50 % of control.
In the case of `CC(C)n1cnc2c(Cl)ncnc21`, the T/C by setting is: (dose: 4.0 mg/kg/injection, schedule: Q01DX011 (ip), vehicle: carboxymethylcellulose (CMC)) 101 % of control; (dose: 8.0 mg/kg/injection, schedule: Q01DX011 (ip), vehicle: carboxymethylcellulose (CMC)) 115 % of control; under setting [2], 92 % of control; (dose: 62.0 mg/kg/injection, schedule: Q01DX011 (ip), vehicle: carboxymethylcellulose (CMC)) 4 % of control and 11 % of control; (dose: 125.0 mg/kg/injection, schedule: Q01DX011 (ip), vehicle: carboxymethylcellulose (CMC)) 5 % of control and 8 % of control; (dose: 250.0 mg/kg/injection, schedule: Q01DX011 (ip), vehicle: carboxymethylcellulose (CMC)) 8 % of control.

Source of the values: PubChem BioAssay AID180 (DTP/NCI, 2004).
